Measured values from the supplement of paper PMC10307832.

Key:
Test in all cases: relative viability (nuclei count vs DMSO), 5 days (fraction); higher = more cells survive
Venetoclax + Alpelisib = compound: CC1(C)CCC(CN2CCN(c3ccc(C(=O)NS(=O)(=O)c4ccc(NCC5CCOCC5)c([N+](=O)[O-])c4)c(Oc4cnc5[nH]ccc5c4)c3)CC2)=C(c2ccc(Cl)cc2)C1 [Venetoclax] + Cc1nc(NC(=O)N2CCC[C@H]2C(N)=O)sc1-c1ccnc(C(C)(C)C(F)(F)F)c1 [Alpelisib] (partner 2 µM)
In short: (§1)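 Lung cancer cell lines, seeded in 1536-well plates, were treated the following day by pin tool with a single drug or with five library-drug doses (not always all listed) in √10 steps on top of a fixed anchor-drug dose. Cells were fixed and nuclei stained in one step after 5 days, and nuclei were counted. Relative viability is the nuclei count for treated wells divided by that for vehicle wells, reported as medians of duplicate plates.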

Venetoclax + Dasatinib = compound: CC1(C)CCC(CN2CCN(c3ccc(C(=O)NS(=O)(=O)c4ccc(NCC5CCOCC5)c([N+](=O)[O-])c4)c(Oc4cnc5[nH]ccc5c4)c3)CC2)=C(c2ccc(Cl)cc2)C1 [Venetoclax] + Cc1nc(Nc2ncc(C(=O)Nc3c(C)cccc3Cl)s2)cc(N2CCN(CCO)CC2)n1 [Dasatinib] (partner 0.075 µM)
In short: as §1

Selumetinib + Crizotinib = compound: Cn1cnc2c(F)c(Nc3ccc(Br)cc3Cl)c(C(=O)NOCCO)cc21 [Selumetinib] + C[C@@H](Oc1cc(-c2cnn(C3CCNCC3)c2)cnc1N)c1c(Cl)ccc(F)c1Cl [Crizotinib] (partner 1 µM)
In short: as §1

Selumetinib + Foretinib = compound: Cn1cnc2c(F)c(Nc3ccc(Br)cc3Cl)c(C(=O)NOCCO)cc21 [Selumetinib] + COc1cc2c(Oc3ccc(NC(=O)C4(C(=O)Nc5ccc(F)cc5)CC4)cc3F)ccnc2cc1OCCCN1CCOCC1 [Foretinib] (partner 0.25 µM)
In short: as §1

Cell Line | relative viability (Venetoclax + Alpelisib; first compound 0.01 µM) | relative viability (Venetoclax + Alpelisib; first compound 0.03162 µM) | relative viability (Venetoclax + Alpelisib; first compound 0.1 µM) | relative viability (Venetoclax + Alpelisib; first compound 0.3162 µM) | relative viability (Venetoclax + Alpelisib; first compound 1 µM) | relative viability (Venetoclax + Dasatinib; first compound 0.01 µM) | relative viability (Venetoclax + Dasatinib; first compound 0.03162 µM) | relative viability (Venetoclax + Dasatinib; first compound 0.1 µM) | relative viability (Venetoclax + Dasatinib; first compound 0.3162 µM) | relative viability (Venetoclax + Dasatinib; first compound 1 µM) | relative viability (Selumetinib + Crizotinib; first compound 0.02 µM) | relative viability (Selumetinib + Crizotinib; first compound 0.06325 µM) | relative viability (Selumetinib + Crizotinib; first compound 0.2 µM) | relative viability (Selumetinib + Crizotinib; first compound 0.6325 µM) | relative viability (Selumetinib + Foretinib; first compound 0.02 µM) | relative viability (Selumetinib + Foretinib; first compound 0.06325 µM) | relative viability (Selumetinib + Foretinib; first compound 0.2 µM) | relative viability (Selumetinib + Foretinib; first compound 0.6325 µM)
NCI-H2023 | 0.574 | 0.573 | 0.544 | 0.553 | 0.551 | 0.697 | 0.53 | 0.653 | 0.512 | 0.46 | 0.649 | 0.533 | 0.431 | 0.503 | 0.709 | 0.811 | 0.6 | 0.572
NCI-H2085 | 0.911 | 0.925 | 0.884 | 0.928 | 0.911 | 0.273 | 0.238 | 0.282 | 0.243 | 0.22 | 0.889 | 0.89 | 0.822 | 0.704 | 0.728 | 0.829 | 0.536 | 0.567
NCI-H2087 | 1.16 | 1.11 | 0.808 | 1.22 | 0.664 | 0.848 | 0.839 | 0.997 | 0.936 | 0.76 | 0.989 | 0.706 | 0.665 | 0.434 | 0.982 | 0.718 | 0.507 | 0.304
NCI-H2126 | 0.807 | 0.728 | 0.759 | 0.819 | 0.796 | 0.568 | 0.572 | 0.612 | 0.607 | 0.546 | 1.01 | 1 | 0.913 | 0.887 | 1.13 | 0.993 | 1.05 | 0.933
NCI-H2170 | 0.769 | 0.739 | 0.75 | 0.825 | 0.788 | 0.569 | 0.508 | 0.373 | 0.556 | 0.502 | 1.17 | 1.11 | 1.03 | 1.15 | 0.987 | 0.954 | 0.967 | 0.952
NCI-H2228 | 0.696 | 0.842 | 0.698 | 0.628 | 0.757 | 0.555 | 0.546 | 0.496 | 0.488 | 0.447 | 0.527 | 0.595 | 0.351 | 0.413 | 0.81 | 0.802 | 0.807 | 0.623
NCI-H2347 | 1.04 | 1.04 | 1.06 | 1 | 1.04 | 0.328 | 0.318 | 0.322 | 0.309 | 0.268 | 0.771 | 0.645 | 0.42 | 0.511 | 0.93 | 0.704 | 0.451 | 0.421
NCI-H2405 | 0.833 | 0.751 | – | 0.82 | 0.705 | 0.179 | 0.199 | 0.186 | 0.197 | 0.197 | 0.774 | 0.774 | 0.716 | 0.549 | 1.05 | 0.983 | 0.909 | 0.545
NCI-H3122 | 0.874 | 0.751 | 0.757 | 0.731 | 0.884 | 0.811 | 0.757 | 0.885 | 0.786 | 0.817 | 0.238 | 0.234 | 0.23 | 0.236 | 0.866 | 0.774 | 0.719 | 0.583
PC-3 [JPC-3] | 0.917 | 1.03 | 1.01 | 0.967 | 1.01 | 0.863 | 0.991 | 0.995 | 1.01 | 0.942 | 0.98 | 0.904 | 0.905 | 0.774 | 0.944 | 0.92 | 0.922 | 0.713
PC-14 | 0.882 | 0.931 | 1.05 | 0.952 | 0.776 | 0.337 | 0.272 | 0.284 | 0.259 | 0.253 | 0.867 | 0.814 | 0.961 | 0.949 | 0.97 | 0.886 | 0.819 | 0.881
RERF-LC-KJ | 0.769 | 0.871 | 0.736 | 0.91 | 0.779 | 0.62 | 0.84 | 0.784 | 0.779 | 0.675 | 0.844 | 0.842 | 0.788 | 0.77 | 0.87 | 0.901 | 0.853 | 0.819
SK-LU-1 | 0.899 | 1.15 | 0.855 | 0.981 | 0.854 | 0.251 | 0.168 | 0.192 | 0.191 | 0.181 | 0.922 | 0.881 | 0.828 | 0.46 | 0.762 | 0.778 | 0.711 | 0.449
SK-MES-1 | 0.857 | 0.898 | 0.887 | 0.788 | 0.831 | 0.4 | 0.383 | 0.329 | 0.408 | 0.376 | 1 | 0.905 | 0.974 | 0.741 | 0.831 | 0.818 | 0.534 | 0.491
SW 1573 | 0.74 | 0.754 | 0.632 | 0.758 | 0.681 | 0.431 | 0.445 | 0.517 | 0.599 | 0.452 | 0.762 | 0.683 | 0.639 | 0.597 | 0.909 | 0.776 | 0.638 | 0.598
